Where two headings read alike, the source gives them in different places. One block for each molecule: values may come before it.
Legend:
[1] = Multiple-dose subcutaneous injections, male C57BL/6J mice; format: in vivo; details: 1 mg/kg SC every 3 days
Method: In addition to single dose injections, the effects of repeated dosing of polyamides 77-80 in mice were examined. In this experiment, 8 week-old male C57BL/6J mice (n=3 per dosing group) were treated with 1 mg/kg of polyamides 77-80 by subcutaneous injection every 3 days, for a cycle of three injections and then sacrificed two days after the final injection (FIG. 31A). As in the single dosing experiments, two mice per group were subjected to histopathology analysis and all blood samples were sent for analysis. […] These mice were promptly euthanized.
Serum from treated animals were collected by retroorbital bleeding. […] All samples were sent for analysis at IDEXX-RADIL.

[2] = Liver microsomal stability, human; details: 1 μM, Human, 1 hr at 37° C., 1 mg/ml microsomes
[3] = Liver microsomal stability, mouse; details: 1 μM, Mouse, 1 hr at 37° C., 1 mg/ml microsomes
[4] = Escalating single dose subcutaneous injections, male C57BL/6J mice (weight, histopathology, serum); details: for weight loss after single SC dose: 1, 3, 10 mg/kg, 9 days
LNCaP cells = assay: Confocal microscopy of fluorescein polyamide uptake in LNCaP cells; format: cell-based; details: for nuclear localization in LNCaP cells: 2 μM, 24 hr
Method: Cells were plated in 35 mm optical dishes (MatTek) and dosed with polyamide 86 at 1 μM for 24 hours with or without 1 μM MG132. Cells were then washed with PBS and imaged on a confocal microscope (Exciter, Zeiss) using a 63× oil immersion lens. Confocal imaging was performed following established protocols (33).
To determine the biological activity of 78 in LNCaP cells we first looked for evidence nuclear localization using fluorescein analog 90. The fluorescein analog of 77, compound 88, was used as benchmark.

[5] = Serum circulation after subcutaneous injection in C57BL/6 mice; format: in vivo; details: 10 mg/kg, male C57BL/6J
Method: To investigate if polyamide 77 could be detected in peripheral blood after SC injections, 120 nmol of 77 (in 5% DMSO/PBS) was injected into the right flank of four C57BL/6 mice. Blood was collected from anesthetized mice via retroorbital collection at 5 minutes, 4 h, and 12 h after injection, then processed by methods previously described and analyzed by HPLC (35). For measurement of serum PSA (KLK3) and uric acid, blood was collected from anesthetized mice via retroorbital collection at experimental endpoint and serum was separated from blood by centrifugation. Serum PSA (KLK3) was measured by ELISA (R&D systems) according to manufacturer's instructions. Uric acid was measured as described (36).
We synthesized four structurally related polyamides (FIG. 28) that have an identical Py-Im sequence ImPyPyPy-γ-ImPyPyPy-NHMe-IPA.

[6] = Liver uptake of fluorescein-polyamide conjugates in mice; format: in vivo; details: 50 nmol (~3 mg/kg), 24 hours
Method: Male C57BL/6J mice (n=2 per group) were injected with 50 nmol (˜3 mg/kg) of 88-91 and then sacrificed 24 hours later. Tissue was excised and processed as previously described (20). The tissues were excised and fixed in 10% Neutral Buffered Formalin for 48 hours. They were subsequently cryoprotected in 15% and 30% aqueous sucrose solution (w/v) for 24 hours each, embedded in a medium for frozen sections (Sakura) and frozen on dry ice. Fluorescence intensity in liver tissue was assessed by laser confocal microscopy in 10 μm thick sections on slides mounted with a ProLong antifade reagent (Invitrogen).

[7] = tested on: PSA mRNA expression in LNCaP cells; assay: DHT-induced PSA mRNA in LNCaP cells, quantitative real-time RT-PCR; format: cell-based; details: for inhibition of DHT-induced PSA expression: up to, at 10 μM, 1 nM DHT
[8] = tested on: FKBP5 mRNA expression in LNCaP cells; assay: DHT-induced FKBP5 mRNA in LNCaP cells; format: cell-based
[9] = tested on: transcripts in DHT-stimulated LNCaP cells; assay: Gene expression with Affymetrix Human Genome U133 Plus 2.0 arrays, DHT-stimulated LNCaP cells; format: cell-based
Method: LNCaP cells were plated in 12-well plates at a density of 80-100×10^3 cells per well. Media, polyamide treatments, and time courses were the same as described above. Bicalutamide was added 2 h before DHT stimulation. RNA was isolated as described in ref. 21. From this point, experiments were carried out at the Millard and Muriel Jacobs Gene Expression Facility at the California Institute of Technology. Labeled mRNA was hybridized to Affymetrix high-density Human Genome U133 Plus 2.0 arrays according to established protocols. Gene expression was analyzed by using Resolver (Rosetta Biosoftware, Seattle, Wash.). Data were uploaded to the Gene Expression Omnibus repository (accession no. GSE7708).
Global effects of polyamides 1 and 2 and bicalutamide on gene expression in DHT-stimulated LNCaP cells were monitored with Affymetrix (Santa Clara, Calif.) high-density Human Genome U133 Plus 2.0 arrays, which interrogate >50,000 transcripts.

[10] = tested on: PSA mRNA expression in LNAR cells; assay: PSA mRNA expression in LNAR cells (hormone refractory, over-express AR); format: cell-based
[11] = 10 μM, + DHT, relative to DHT-induced controls, p ≦ 0.01
[12] = relative to DHT-induced controls, + DHT

Mean remaining parent NADPH-free [2]: 100%
Mean remaining parent with NADPH [2]: 91.9%
Mean remaining parent NADPH-free [3]: 100%
Mean remaining parent with NADPH [3]: 92.4%
weight loss after single SC dose [4]: significant weight loss only at 10 mg/kg
kidney histopathology ([4]; single SC 3 mg/kg): Moderate atypical tubular regeneration
serum kidney markers creatinine and BUN ([4]; single SC dose): elevated BUN at 10 mg/kg
Compound: CN(CCCNC(=O)c1cccc(C(=O)O)c1)CCCNC(=O)c1cc(NC(=O)c2cc(NC(=O)c3cc(NC(=O)c4nc(NC(=O)C[C@@H](N)CNC(=O)c5cc(NC(=O)c6cc(NC(=O)c7cc(NC(=O)c8nccn8C)cn7C)cn6C)cn5C)cn4C)cn3C)cn2C)cn1C [Polyamide 79, ImPyPyPy-3-(R)H^2Nγ-ImPyPyPy-NHMe-IPA]
liver and kidney histopathology [1]: mild multifocal hepatocellular necrosis and apoptosis in the liver and mild variable tubular attenuation, karyomegaly and epithelial necrosis and apoptosis in the kidney
liver and kidney serum markers [1]: elevated AST and ALT
weight and physical morbidity ([1]; three injections): no loss in weight or physical morbidities
liver histopathology ([4]; single SC 3 mg/kg): Mild hepatocellular necrosis and apoptosis
liver histopathology ([4]; single SC 10 mg/kg): diffuse hepatocellular necrosis and apoptosis
spleen histopathology ([4]; single SC 10 mg/kg): Mild lymphoid apoptosis in the white pulp of the spleen
serum liver markers AST, ALT, total bilirubin ([4]; single SC dose): severe elevation of AST, ALT, and total bilirubin at 10 mg/kg and to a lesser extent at 3 mg/kg

Compound: CN(CCCNC(=O)c1cc(NC(=O)c2cc(NC(=O)c3cc(NC(=O)c4nc(NC(=O)C[C@H](CNC(=O)c5cc(NC(=O)c6cc(NC(=O)c7cc(NC(=O)c8nccn8C)cn7C)cn6C)cn5C)NC(=O)OCc5ccccc5)cn4C)cn3C)cn2C)cn1C)CCCNC(=S)Nc1ccc(-c2c3ccc(=O)cc-3oc3cc(O)ccc23)c(C(=O)O)c1 [Polyamide 86]
cellular uptake with MG132 (LNCaP cells; 1 μM, 24 hours, 1 μM MG132): did not affect the cellular uptake

Compound: Cn1cc2cc1C(=O)NCCCC(=O)Nc1cn(C)c(n1)C(=O)Nc1cc(n(C)c1)C(=O)Nc1cc(n(C)c1)C(=O)Nc1cc(n(C)c1)C(=O)NCC[C@@H](N)C(=O)Nc1cn(C)c(n1)C(=O)Nc1cc(n(C)c1)C(=O)Nc1cc(n(C)c1)C(=O)N2 [Polyamide 87]
bioavailability in serum after subcutaneous injection [5]: bioavailable after subcutaneous injection at 10 mg/kg
weight loss after single SC dose [4]: did not cause significant weight loss
overall toxicity / organ damage ([4]; single SC 1, 3, 10 mg/kg): moderate damage to both the liver and kidney at 3 and 10 mg/kg
serum liver markers AST, ALT, total bilirubin ([4]; single SC dose): caused levels of ALT and AST to increase in a dose dependent manner

Compound: CN(CCCNC(=O)c1cc(NC(=O)c2cc(NC(=O)c3cc(NC(=O)c4nc(NC(=O)[C@H](N)CCNC(=O)c5cc(NC(=O)c6cc(NC(=O)c7cc(NC(=O)c8nccn8C)cn7C)cn6C)cn5C)cn4C)cn3C)cn2C)cn1C)CCCNC(=S)Nc1ccc(-c2c3ccc(=O)cc-3oc3cc(O)ccc23)c(C(=O)O)c1 [Polyamide 88]
nuclear localization in LNCaP cells (LNCaP cells): robust nuclear localization

Compound: CC(=O)N[C@H](CCNC(=O)c1cc(NC(=O)c2cc(NC(=O)c3cc(NC(=O)c4nccn4C)cn3C)cn2C)cn1C)C(=O)Nc1cn(C)c(C(=O)Nc2cc(C(=O)Nc3cc(C(=O)Nc4cc(C(=O)NCCCN(C)CCCNC(=S)Nc5ccc(-c6c7ccc(=O)cc-7oc7cc(O)ccc67)c(C(=O)O)c5)n(C)c4)n(C)c3)n(C)c2)n1 [Polyamide 90]
nuclear localization in LNCaP cells (LNCaP cells): robust nuclear localization
nuclear fluorescence in liver sections [6]: less nuclear fluorescence in liver sections than the other FITC-polyamide conjugates

Compound: CC(=O)N[C@@H](CNC(=O)c1cc(NC(=O)c2cc(NC(=O)c3cc(NC(=O)c4nccn4C)cn3C)cn2C)cn1C)CC(=O)Nc1cn(C)c(C(=O)Nc2cc(C(=O)Nc3cc(C(=O)Nc4cc(C(=O)NCCCN(C)CCCNC(=S)Nc5ccc(-c6c7ccc(=O)cc-7oc7cc(O)ccc67)c(C(=O)O)c5)n(C)c4)n(C)c3)n(C)c2)n1 [Polyamide 91]
nuclear fluorescence in liver sections [6]: the most intense nuclear fluorescence in liver sections

IC50 ([7]; Homo sapiens, LNCaP + DHT, read-out: IC50 for inhibition of PSA mRNA expression): 0.9 µM
IC50 ([10]; LNAR + DHT, read-out: IC50 for inhibition of PSA mRNA expression): > 1000 µM
IC50 ([10]; LNAR − DHT, bicalutamide induces PSA mRNA in LNAR cells, read-out: IC50 for inhibition of PSA mRNA expression (value in parentheses)): 3.5 µM
Compound: CC(O)(CS(=O)(=O)c1ccc(F)cc1)C(=O)Nc1ccc(C#N)c(C(F)(F)F)c1 (stereo not shown) [bicalutamide, reference compound]
inhibition of DHT-induced PSA expression [7]: approximately 70%
inhibition of DHT-induced PSA expression ([7]; listed as Bicalutamide): ≈ 70%
inhibition of DHT-induced expression of FKBP5 [8]: ~95%
Number of transcripts down-regulated (fold change ≦ −2.0) [9, 11]: 602
Number of transcripts down-regulated (fold change ≦ −4.0) [9, 11]: 133
Number of transcripts up-regulated (fold change ≧ 2.0) [9, 11]: 611
Number of transcripts up-regulated (fold change ≧ 4.0) [9, 11]: 96
number of transcripts affected by at least 2-fold ([9]; 10 μM, P≦0.01, vs DHT-induced controls): 1,213
number of the 88 DHT-repressed transcripts derepressed at least 2-fold ([9]; P≦0.01): 87
number of the 199 DHT-induced transcripts inhibited at least 2-fold ([9]; P≦0.01): 186
Fold-change of FKBP5 [9, 12]: −36.4
Fold-change of KLK2 [9, 12]: −14.7
Fold-change of KLK3 (PSA) [9, 12]: −3.2
Fold-change of TMPRSS2 [9, 12]: −4.1
